Experimental data: patent publication US20090023666A1, “Modulators of Hypoxia Inducible Factor-1 and Related Uses” (priority 2006, published 2009)
Like-named read-outs stand apart in the source and are kept apart here.

How the values were obtained:
MES-SA-DX5 = assay: Anti-proliferative activity, MES-SA-DX5; assay type: cell-based; details: Homo sapiens
Description: (§1) FIG. 8 is a graph depicting the mRNA levels of α-1 and α-3 isoforms quantitated by real time RT-PCR (TaqMan) using fluorescent labeled TaqMan probes. Anti-proliferation (IC50 values) activity of BNC4 on indicated cell lines was determined by MTS assay. Total alpha levels (al+a3) were plotted against (1/IC50) X100 values.

C33A = assay: Anti-proliferative activity, C33A; assay type: cell-based; details: Homo sapiens, C-33-A, read-out: Anti-Proliferative activity IC50
Description: as §1

RPMI-8226 = assay: Anti-proliferative activity, RPMI-8226; assay type: cell-based; details: Homo sapiens
Description: as §1

786-O = assay: Anti-proliferative activity, 786-O; assay type: cell-based; details: Homo sapiens
Description: as §1

HOP-18 = assay: Anti-proliferative activity, HOP-18; assay type: cell-based; details: Homo sapiens
Description: as §1

A549 sentinel line = assay: Hypoxic stress response induced by cytotoxic agents in A549 sentinel line; assay type: cell-based; details: in the presence of Gemcitabine
Text: FIGS. 7A-7E are graphs depicting the stress response of A549 Sentinel Line induced by treatment with Gemcitabine (FIG. 7A) or Gemcitabine in the presence of indicated compound (FIG. 7B-7D). Untreated (control) sample is shown in shadow. […] Similar results can be achieved for other chemotherapeutic agents which induce hypoxic stress, such as paclitaxel, carboplatin, and mitoxantrone.
Similar results were obtained with carboplatin (not shown).

MCF-7 = assay: Anti-proliferative activity, MCF-7; assay type: cell-based; details: Homo sapiens
Description: as §1

tumor cell lines = assay: Anti-proliferative activity in tumor cell lines (panel); assay type: cell-based, human; details: for IC50: Homo sapiens, read-out: IC50 range over the tumor cell lines
Description: as §1

Panc-1 tumors = assay: In vivo activity against Panc-1 human pancreatic xenograft; set-up: species or system nude mice; details: SC, CI
Description: Panc-1 tumors were injected subcutaneously (sc) into the flanks of male nude mice. After the tumors reached 60 mg in size, osmotic pumps (model 2002, Alzet Inc., flow rate 0.5 μl/hr) containing 15 mg/ml of BP244 were implanted sc on the opposite sides of the mice. The control animals received pumps containing vehicle (10% captisol, Cyclex Inc.). The mice treated with standard chemotherapy agent received intra-peritoneal injections of Gemcitabine at 40 mg/kg every 3 days for 4 treatments (q3d×4). The experiment was terminated when the control group tumor size reached an average of about 1 gram. Upon termination, the mice were weighed, sacrificed and their tumors excised. The tumors were weighed and the mean tumor weight per group was calculated.
A titration experiment was first performed on BP244 to determine its minimum effective dose against Panc-1 human pancreatic xenograft in nude mice. BP244 (sc, osmotic pumps) was first tested at 15, 10 and 5 mg/ml using Alzet pumps as in previous experiments. Gemcitabine (40 mg/kg; q3d×4, i.p.) was also included in the experiment as a comparison. […]

MES-SA = assay: Anti-proliferative activity, MES-SA; assay type: cell-based; details: Homo sapiens, read-out: Anti-Proliferative activity IC50
Description: as §1

Panc-1 (PANC) = assay: Anti-proliferative activity (APA), Panc-1; assay type: cell-based; details: Homo sapiens
Description: as §1

[1] = Pharmacokinetics following IP administration in mice; assay type: in vivo; details: for tlast / Tmax: i.p.; for half-life: read-out: t1/2 (terminal elimination half-life) (converted)
Description: FIG. 13 is a graph depicting the pharmacokinetic profiled of BNC4, BP228 and BP244 in mice. The compounds were administered by intraperitoneal (i.p) injection at 2.5 mg/kg and 5.0 mg/kg for BP228 and at 5.0 mg/kg for BNC4 and BP244. The plasma samples were collected at various time points and concentration of compounds was analyzed by LC-MS. Pharmacokinetic parameters are provided in Example 23.
The compounds were administered by intraperitoneal (i.p) injection at 2.5 mg/kg and 5.0 mg/kg for BP228 and at 5.0 mg/kg for BNC4 and BP244. The plasma samples were collected at various time points and concentration of compounds was analyzed by LC-MS.

HCT116 = assay: Anti-proliferative activity, HCT116; assay type: cell-based; details: Homo sapiens
Description: as §1

DU145 = assay: Anti-proliferative activity, DU145; assay type: cell-based; details: Homo sapiens
Description: as §1

PC3 = assay: Anti-proliferative activity, PC3; assay type: cell-based; details: Homo sapiens
Description: as §1

HT29 = assay: Anti-proliferative activity, HT29; assay type: cell-based; details: Homo sapiens
Description: as §1

[2] = system: HIF-1α sensitive A549 sentinel line; assay: HIF-1α sensitive A549 sentinel line reporter activity (FACS); assay type: cell-based; details: 24 hours, 5 nM (FIG. 4)
Description: FIGS. 4A-4D are graphs depicting FACS analysis of beta-gal activity in an A549 sentinel line treated with 5 nM of BNC4 (FIG. 4A), BP228 (FIG. 4B), and BP244 (FIG. 4C) in comparison to vehicle only (shown as the shaded portion of the graph) for 24 hours. The graphs indicate frequency of cells (Y-axis) and intensity of fluorescence (X-axis) as measure of pathway activity. The bar chart (FIG. 4D) depicts the relative median fluorescent units of FACS curves.
By using the HIF-1α sensitive A549 sentinel line, the cell line was incubated with either BNC4, BP228 or BP244 for 24 hours and reporter activity was measured by FACS analysis.

P388 = assay: Anti-proliferative activity, P388; assay type: cell-based; details: Mus musculus
Description: as §1

[3] = MES-SA/Dx5, read-out: Anti-Proliferative activity IC50
[4] = RPMI-8226, read-out: Anti-Proliferative activity IC50
[5] = 786-0, read-out: Anti-Proliferative activity IC50
[6] = HOP-18, read-out: Anti-Proliferative activity IC50
[7] = MCF7, read-out: Anti-Proliferative activity IC50
[8] = PANC-1, read-out: Anti-Proliferative activity IC50
[9] = mouse, plasma, ip, 5 mg/kg, 5 mg/kg, read-out: tmax
[10] = HCT-116, read-out: Anti-Proliferative activity IC50
[11] = DU-145, read-out: Anti-Proliferative activity IC50
[12] = PC-3, read-out: Anti-Proliferative activity IC50
[13] = HT-29, read-out: Anti-Proliferative activity IC50
[14] = P388, read-out: Anti-Proliferative activity IC50

SMILES | IC50 (MES-SA-DX5; [3]) | IC50 (C33A) | IC50 (RPMI-8226; [4]) | IC50 (786-O; [5]) | IC50 (HOP-18; [6]) | stress response in A549 sentinel line induced by Gemcitabine (A549 sentinel line) | IC50 (MCF-7; [7]) | IC50 (tumor cell lines) | % TGI (d24) (Panc-1 tumors; 10 mg/ml) | % Wt Change (d24) (Panc-1 tumors; 10 mg/ml) | Av. Tumor Weight (Panc-1 tumors; 10 mg/ml) | % TGI (d24) (Panc-1 tumors; 15 mg/ml) | % Wt Change (d24) (Panc-1 tumors; 15 mg/ml) | Av. Tumor Weight (Panc-1 tumors; 15 mg/ml) | tlast ([1]; 5 mg/kg) | AUC ([1]; mouse, plasma, ip, 5 mg/kg) | Cmax ([1]; mouse, plasma, ip, 5 mg/kg) | Tmax [1, 9] | half-life ([1]; mouse, plasma, ip, 5 mg/kg) | reporter activity in A549 sentinel line [2] | other results
C[C@@H]1O[C@@H](O[C@@H]2C=C3CC[C@@H]4[C@H](CC[C@]5(C)[C@@H](c6ccc(=O)oc6)CC[C@]45O)[C@@]3(C)CC2)[C@H](O)[C@H](O)[C@H]1N [BP244] | 13.5 nM | 5.1 nM | 10.7 nM | 8 nM | 7.3 nM | can inhibit the stress response | 8.2 nM | 5 to 14 nM | 98% | 0.93% | 107.3 mg | 102% | 5.26% | 44.2 mg | 24 h | 4630 ng·h/mL | 2120 ng/mL | 30 min | 270 min | active in inhibiting the reporter activity | % TGI (d24) (Panc-1 tumors; 5 mg/ml): 71%; % Wt Change (d24) (Panc-1 tumors; 5 mg/ml): −4.63%; Av. Tumor Weight (Panc-1 tumors; 5 mg/ml): 524.4 mg; IC50 (MES-SA): 8 nM; IC50 (Panc-1 (PANC); [8]): 6.6 nM; IC50 (HCT116; [10]): 5.1 nM; IC50 (DU145; [11]): 6.7 nM; IC50 (PC3; [12]): 5.7 nM; IC50 (HT29; [13]): 8.2 nM; IC50 (P388; [14]): > 1000 nM
C[C@@H]1O[C@@H](O[C@@H]2C=C3CC[C@@H]4[C@H](CC[C@]5(C)[C@@H](c6ccc(=O)oc6)CC[C@]45O)[C@@]3(C)CC2)[C@H](O)[C@H](O)[C@H]1O [BNC4, proscillaridin, reference compound] |  |  |  |  |  | can inhibit the stress response |  |  |  |  |  | 87% | −2.69% | 243.9 mg | 6 h | 4570 ng·h/mL | 3610 ng/mL | 15 min | 48 min | active in inhibiting the reporter activity | IC50 (MES-SA-DX5; MES-SA-DX5, Uterine, read-out: Anti-Proliferative activity IC50): 11.6 nM; IC50 (C33A; C33A, Cervical): 13.6 nM; IC50 (RPMI-8226; RPMI-8226, Myeloma, read-out: Anti-Proliferative activity IC50): 18.2 nM; IC50 (786-O; 786-0, 786-O, Renal, read-out: Anti-Proliferative activity IC50): 8.4 nM; IC50 (HOP-18; HOP-18, NSCL, read-out: Anti-Proliferative activity IC50): 9.2 nM; IC50 (MCF-7; MCF7, MCF-7, Breast (ER+), read-out: Anti-Proliferative activity IC50): 8.4 nM; IC50 (tumor cell lines; range over cell lines of Table 2): 418 nM; sensitivity of cell lines expressing very low levels of α-chain (tumor cell lines; SNB75 and RPMI-8226 compared with A549 or PC-3, MTS assay): very resistant; IC50 (MES-SA; Uterine): 8.7 nM; IC50 (Panc-1 (PANC); PANC-1, PANC, Pancreatic, read-out: Anti-Proliferative activity IC50): 3.8 nM; IC50 (HCT116; HCT-116, HCT116, Colon, read-out: Anti-Proliferative activity IC50): 8.1 nM; IC50 (DU145; DU-145, DU145, Prostate (AR-), read-out: Anti-Proliferative activity IC50): 6.2 nM; IC50 (PC3; PC-3, PC3, Prostate, read-out: Anti-Proliferative activity IC50): 4.1 nM; IC50 (HT29; HT-29, HT29, Colon, read-out: Anti-Proliferative activity IC50): 8.9 nM; IC50 (P388; P388, Leukemia, read-out: Anti-Proliferative activity IC50): > 1000 nM
C[C@]12CC/C(=N\OCCN3CCCCC3)C=C1CC[C@@H]1[C@@H]2CC[C@]2(C)[C@@H](c3ccc(=O)oc3)CC[C@]12O [BP228] | 15.8 nM | 7.2 nM | 25.5 nM | 8.9 nM | 18.9 nM | can inhibit the stress response | 19.8 nM | 640 nM | 66% | 1.97% | 488.0 mg | 79% | 4.88% | 327.0 mg | 6 h | 2350 ng·h/mL | 1200 ng/mL | 4.98 min | 114 min | active in inhibiting the reporter activity | IC50 (MES-SA): 11.4 nM; IC50 (Panc-1 (PANC); [8]): 8.1 nM; tlast ([1]; 2.5 mg/kg): 6 h; Tmax ([1]; 5 mg/kg, listed as BNC228, 5 mg/kg): 5 min; AUC ([1]; mouse, plasma, ip, 2.5 mg/kg): 1020 ng·h/mL; Cmax ([1]; mouse, plasma, ip, 2.5 mg/kg): 715 ng/mL; Tmax ([1]; mouse, plasma, ip, 2.5 mg/kg, 2.5 mg/kg, read-out: tmax): 10 min; half-life ([1]; mouse, plasma, ip, 2.5 mg/kg): 90 min; IC50 (HCT116; [10]): 6.4 nM; IC50 (DU145; [11]): 8.8 nM; IC50 (PC3; [12]): 6.2 nM; IC50 (HT29; [13]): 18.9 nM; IC50 (P388; [14]): > 1000 nM
